From ChEMBL document CHEMBL1201862, “PubChem BioAssay data set” (2004)
Active and inactive are the calls of the source.

Tests used:
[1] = target: Sphingosine 1-phosphate receptor 3 (Homo sapiens, UniProt Q99500); experiment: Late stage counterscreen assay for S1P4 antagonists: Fluorescence dose response cell-based screening assay for antagonists of the Sphingosine 1-Phosphate Receptor 3 (S1P3). [Related pubchem assays (depositor defined):AID1510, AID1524, AID1692, AID1853, AID2332, AID489009, AID489017]; assay type: functional
[2] = target: Sphingosine 1-phosphate receptor 2 (Homo sapiens, UniProt O95136); experiment: Late stage counterscreen assay for S1P4 antagonists: Fluorescence dose response cell-based screening assay for antagonists of the Sphingosine 1-Phosphate Receptor 2 (S1P2). [Related pubchem assays (depositor defined):AID1510, AID1524, AID1692, AID1853, AID2332, AID489009, AID489017]; assay type: functional
[3] = target: Sphingosine 1-phosphate receptor 1 (Homo sapiens, UniProt P21453); experiment: Late stage counterscreen assay for S1P4 antagonists: Fluorescence dose response cell-based screening assay for antagonists of the Sphingosine 1-Phosphate Receptor 1 (S1P1). [Related pubchem assays (depositor defined):AID1510, AID1524, AID1692, AID1853, AID2332, AID489009, AID489017]; assay type: functional
[4] = target: Sphingosine 1-phosphate receptor 5 (Homo sapiens, UniProt Q9H228); experiment: Late stage counterscreen assay for S1P4 antagonists: Fluorescence dose response cell-based screening assay for antagonists of the Sphingosine 1-Phosphate Receptor 5 (S1P5). [Related pubchem assays (depositor defined):AID1510, AID1524, AID1692, AID1853, AID2332, AID489009, AID489017]; assay type: functional
[5] = target: DNA dC->dU-editing enzyme APOBEC-3A (Homo sapiens, UniProt P31941); experiment: A3A deaminase inhibition for selectivity – biochemical, dose response (AID 504722); assay type: functional
Sequence of DNA dC->dU-editing enzyme APOBEC-3A (P31941 whole entry): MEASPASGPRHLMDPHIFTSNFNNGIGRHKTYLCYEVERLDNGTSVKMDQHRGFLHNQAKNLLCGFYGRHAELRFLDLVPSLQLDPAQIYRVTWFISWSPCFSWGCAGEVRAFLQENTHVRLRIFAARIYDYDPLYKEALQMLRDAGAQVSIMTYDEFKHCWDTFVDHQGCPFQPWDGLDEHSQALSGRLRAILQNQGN

[6] = target: DNA (cytosine-5)-methyltransferase 1 (Homo sapiens, UniProt P26358); experiment: inhibition of DNA methylation by DNMT1 – biochemical, fluorescent molecular beacon, confirmation (AID 602386); assay type: functional
Sequence of DNA (cytosine-5)-methyltransferase 1 (P26358 whole entry): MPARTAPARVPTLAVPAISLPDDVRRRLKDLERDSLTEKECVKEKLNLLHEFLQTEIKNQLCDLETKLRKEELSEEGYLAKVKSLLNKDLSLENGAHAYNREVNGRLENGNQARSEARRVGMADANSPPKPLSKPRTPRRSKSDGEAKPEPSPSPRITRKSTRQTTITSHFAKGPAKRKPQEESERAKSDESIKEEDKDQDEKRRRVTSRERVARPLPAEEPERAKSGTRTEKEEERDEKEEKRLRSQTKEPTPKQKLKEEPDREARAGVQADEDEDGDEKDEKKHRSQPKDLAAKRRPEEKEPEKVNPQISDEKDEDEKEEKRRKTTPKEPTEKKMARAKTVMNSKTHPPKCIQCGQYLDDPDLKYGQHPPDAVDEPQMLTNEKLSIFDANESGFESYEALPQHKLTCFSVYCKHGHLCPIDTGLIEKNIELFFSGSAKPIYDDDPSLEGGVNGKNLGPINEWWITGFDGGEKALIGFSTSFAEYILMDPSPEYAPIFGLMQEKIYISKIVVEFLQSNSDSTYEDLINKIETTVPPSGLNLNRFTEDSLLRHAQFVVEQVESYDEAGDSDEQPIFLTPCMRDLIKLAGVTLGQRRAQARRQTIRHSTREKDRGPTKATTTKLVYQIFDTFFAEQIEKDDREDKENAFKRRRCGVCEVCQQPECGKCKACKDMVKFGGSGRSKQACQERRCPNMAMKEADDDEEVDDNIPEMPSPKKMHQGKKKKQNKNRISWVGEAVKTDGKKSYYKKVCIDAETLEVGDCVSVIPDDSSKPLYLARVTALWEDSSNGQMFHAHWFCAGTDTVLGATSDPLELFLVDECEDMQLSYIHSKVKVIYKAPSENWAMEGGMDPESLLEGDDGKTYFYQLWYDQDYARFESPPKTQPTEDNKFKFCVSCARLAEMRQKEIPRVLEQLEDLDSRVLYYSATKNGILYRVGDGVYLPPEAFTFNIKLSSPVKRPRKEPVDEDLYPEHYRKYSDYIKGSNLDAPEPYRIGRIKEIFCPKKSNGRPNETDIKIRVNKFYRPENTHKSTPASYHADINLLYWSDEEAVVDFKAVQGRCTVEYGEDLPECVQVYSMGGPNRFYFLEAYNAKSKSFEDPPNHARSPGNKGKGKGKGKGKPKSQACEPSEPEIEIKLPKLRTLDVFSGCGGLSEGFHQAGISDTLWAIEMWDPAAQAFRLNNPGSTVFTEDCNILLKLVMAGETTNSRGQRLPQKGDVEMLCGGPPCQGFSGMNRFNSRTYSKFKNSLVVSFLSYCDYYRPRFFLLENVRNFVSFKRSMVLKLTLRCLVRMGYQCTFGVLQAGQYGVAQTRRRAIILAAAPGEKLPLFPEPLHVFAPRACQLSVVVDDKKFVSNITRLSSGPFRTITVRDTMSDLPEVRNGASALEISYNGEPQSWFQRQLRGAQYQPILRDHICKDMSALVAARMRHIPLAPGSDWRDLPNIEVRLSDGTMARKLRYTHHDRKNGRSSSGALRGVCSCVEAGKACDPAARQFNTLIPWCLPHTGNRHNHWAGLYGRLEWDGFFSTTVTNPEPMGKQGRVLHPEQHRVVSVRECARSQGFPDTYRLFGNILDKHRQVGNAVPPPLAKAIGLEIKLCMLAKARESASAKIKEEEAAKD

[7] = target: T1, Apoptotic protease-activating factor 1 (Homo sapiens, UniProt O14727); experiment: activation of Apaf-1 mediated apoptosis – fluorescent, uHTS hits, dose response (AID 588554); assay type: functional
T1 sequence (O14727 whole entry): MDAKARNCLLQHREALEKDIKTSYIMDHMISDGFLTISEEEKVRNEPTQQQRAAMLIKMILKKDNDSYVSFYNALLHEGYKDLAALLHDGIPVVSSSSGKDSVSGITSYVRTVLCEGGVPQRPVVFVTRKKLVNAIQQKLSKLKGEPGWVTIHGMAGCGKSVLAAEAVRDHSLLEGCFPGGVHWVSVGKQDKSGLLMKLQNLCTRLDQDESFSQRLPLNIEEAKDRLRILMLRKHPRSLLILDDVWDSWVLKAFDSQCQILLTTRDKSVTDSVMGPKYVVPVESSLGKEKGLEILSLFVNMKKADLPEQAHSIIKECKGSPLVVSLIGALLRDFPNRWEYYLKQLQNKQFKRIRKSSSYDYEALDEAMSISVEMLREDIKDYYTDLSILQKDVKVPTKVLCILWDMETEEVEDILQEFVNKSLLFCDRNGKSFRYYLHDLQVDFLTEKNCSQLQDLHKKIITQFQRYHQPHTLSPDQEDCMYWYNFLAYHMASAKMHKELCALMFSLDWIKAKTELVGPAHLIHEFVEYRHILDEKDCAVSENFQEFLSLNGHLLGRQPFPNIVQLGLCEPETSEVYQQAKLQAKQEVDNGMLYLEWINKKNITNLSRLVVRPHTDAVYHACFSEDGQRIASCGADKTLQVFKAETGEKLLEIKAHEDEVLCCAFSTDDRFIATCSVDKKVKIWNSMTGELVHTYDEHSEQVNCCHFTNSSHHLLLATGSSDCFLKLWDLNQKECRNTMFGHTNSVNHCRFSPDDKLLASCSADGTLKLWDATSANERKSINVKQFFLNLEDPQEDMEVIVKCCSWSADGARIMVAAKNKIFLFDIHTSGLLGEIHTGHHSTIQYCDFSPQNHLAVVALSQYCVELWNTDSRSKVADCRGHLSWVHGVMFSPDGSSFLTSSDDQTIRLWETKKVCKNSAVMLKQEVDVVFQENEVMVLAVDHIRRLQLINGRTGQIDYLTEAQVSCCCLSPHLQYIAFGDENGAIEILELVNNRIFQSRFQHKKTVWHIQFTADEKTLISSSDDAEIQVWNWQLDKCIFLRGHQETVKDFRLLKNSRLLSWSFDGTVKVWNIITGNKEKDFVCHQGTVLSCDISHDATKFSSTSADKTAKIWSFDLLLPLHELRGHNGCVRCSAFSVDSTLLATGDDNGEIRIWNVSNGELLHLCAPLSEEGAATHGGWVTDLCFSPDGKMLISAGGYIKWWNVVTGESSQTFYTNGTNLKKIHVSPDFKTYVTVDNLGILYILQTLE

[8] = target: T2, Voltage-gated N-type calcium channel alpha-1B subunit/Amyloid beta A4 precursor protein-binding family A member 1 (Homo sapiens, UniProt Q00975+Q02410); assay type: protein assay
T2 sequence (Q00975 whole entry): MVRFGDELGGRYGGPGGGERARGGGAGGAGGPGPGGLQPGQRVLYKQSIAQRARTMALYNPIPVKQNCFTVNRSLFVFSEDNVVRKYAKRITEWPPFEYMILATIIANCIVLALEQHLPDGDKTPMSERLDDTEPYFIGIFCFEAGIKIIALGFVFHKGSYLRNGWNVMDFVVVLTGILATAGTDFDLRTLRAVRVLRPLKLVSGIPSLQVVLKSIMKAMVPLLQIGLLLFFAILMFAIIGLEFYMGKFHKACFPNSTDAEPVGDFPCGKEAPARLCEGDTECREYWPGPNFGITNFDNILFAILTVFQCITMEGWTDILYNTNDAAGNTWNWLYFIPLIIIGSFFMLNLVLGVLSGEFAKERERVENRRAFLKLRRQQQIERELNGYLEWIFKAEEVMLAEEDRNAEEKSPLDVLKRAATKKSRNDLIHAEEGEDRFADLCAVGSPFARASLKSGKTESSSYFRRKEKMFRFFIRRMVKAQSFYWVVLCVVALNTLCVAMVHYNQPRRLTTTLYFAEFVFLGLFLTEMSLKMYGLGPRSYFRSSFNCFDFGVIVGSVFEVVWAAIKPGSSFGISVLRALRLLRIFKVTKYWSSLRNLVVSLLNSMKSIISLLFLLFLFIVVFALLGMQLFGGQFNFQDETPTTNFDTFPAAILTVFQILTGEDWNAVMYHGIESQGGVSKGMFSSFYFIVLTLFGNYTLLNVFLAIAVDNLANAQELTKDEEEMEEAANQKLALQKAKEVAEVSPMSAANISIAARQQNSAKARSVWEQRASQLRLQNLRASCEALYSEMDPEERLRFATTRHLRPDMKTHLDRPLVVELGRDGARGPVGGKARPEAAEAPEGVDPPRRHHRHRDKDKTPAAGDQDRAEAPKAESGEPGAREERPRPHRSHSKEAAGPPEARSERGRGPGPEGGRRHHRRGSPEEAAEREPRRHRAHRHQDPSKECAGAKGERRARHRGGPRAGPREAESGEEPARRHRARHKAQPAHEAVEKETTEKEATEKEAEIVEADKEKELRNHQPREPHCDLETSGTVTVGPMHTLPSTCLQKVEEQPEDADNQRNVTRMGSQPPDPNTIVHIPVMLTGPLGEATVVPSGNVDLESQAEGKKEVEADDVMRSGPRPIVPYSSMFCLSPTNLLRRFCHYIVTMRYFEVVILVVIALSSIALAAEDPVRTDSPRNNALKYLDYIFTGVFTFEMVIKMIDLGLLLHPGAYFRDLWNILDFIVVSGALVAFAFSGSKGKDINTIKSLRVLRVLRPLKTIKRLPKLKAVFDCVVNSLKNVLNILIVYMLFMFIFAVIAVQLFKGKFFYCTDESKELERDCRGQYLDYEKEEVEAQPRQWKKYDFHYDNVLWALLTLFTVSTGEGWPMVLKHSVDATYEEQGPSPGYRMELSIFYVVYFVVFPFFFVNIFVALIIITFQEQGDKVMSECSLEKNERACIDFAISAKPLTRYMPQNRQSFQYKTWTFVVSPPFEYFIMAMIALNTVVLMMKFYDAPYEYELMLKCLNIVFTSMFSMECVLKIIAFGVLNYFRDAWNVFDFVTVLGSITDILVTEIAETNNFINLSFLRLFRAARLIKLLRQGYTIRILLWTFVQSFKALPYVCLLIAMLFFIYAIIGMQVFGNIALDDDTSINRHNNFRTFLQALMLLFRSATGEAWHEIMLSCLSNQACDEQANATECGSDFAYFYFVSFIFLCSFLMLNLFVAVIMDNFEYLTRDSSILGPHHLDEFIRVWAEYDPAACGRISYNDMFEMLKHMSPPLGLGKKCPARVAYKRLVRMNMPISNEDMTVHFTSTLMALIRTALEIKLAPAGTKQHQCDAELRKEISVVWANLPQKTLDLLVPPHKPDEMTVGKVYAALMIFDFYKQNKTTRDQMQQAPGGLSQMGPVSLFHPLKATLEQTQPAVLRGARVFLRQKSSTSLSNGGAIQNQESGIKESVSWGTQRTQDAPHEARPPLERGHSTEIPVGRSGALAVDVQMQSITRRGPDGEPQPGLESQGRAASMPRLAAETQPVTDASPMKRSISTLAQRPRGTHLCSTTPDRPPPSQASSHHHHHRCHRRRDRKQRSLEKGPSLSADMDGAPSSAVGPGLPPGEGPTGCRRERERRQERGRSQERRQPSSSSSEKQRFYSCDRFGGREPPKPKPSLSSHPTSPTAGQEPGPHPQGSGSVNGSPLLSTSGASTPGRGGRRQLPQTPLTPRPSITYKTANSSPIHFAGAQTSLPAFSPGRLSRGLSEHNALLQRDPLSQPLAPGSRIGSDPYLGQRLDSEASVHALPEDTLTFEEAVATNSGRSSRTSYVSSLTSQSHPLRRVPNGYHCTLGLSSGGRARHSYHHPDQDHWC
T2 sequence (Q02410 whole entry): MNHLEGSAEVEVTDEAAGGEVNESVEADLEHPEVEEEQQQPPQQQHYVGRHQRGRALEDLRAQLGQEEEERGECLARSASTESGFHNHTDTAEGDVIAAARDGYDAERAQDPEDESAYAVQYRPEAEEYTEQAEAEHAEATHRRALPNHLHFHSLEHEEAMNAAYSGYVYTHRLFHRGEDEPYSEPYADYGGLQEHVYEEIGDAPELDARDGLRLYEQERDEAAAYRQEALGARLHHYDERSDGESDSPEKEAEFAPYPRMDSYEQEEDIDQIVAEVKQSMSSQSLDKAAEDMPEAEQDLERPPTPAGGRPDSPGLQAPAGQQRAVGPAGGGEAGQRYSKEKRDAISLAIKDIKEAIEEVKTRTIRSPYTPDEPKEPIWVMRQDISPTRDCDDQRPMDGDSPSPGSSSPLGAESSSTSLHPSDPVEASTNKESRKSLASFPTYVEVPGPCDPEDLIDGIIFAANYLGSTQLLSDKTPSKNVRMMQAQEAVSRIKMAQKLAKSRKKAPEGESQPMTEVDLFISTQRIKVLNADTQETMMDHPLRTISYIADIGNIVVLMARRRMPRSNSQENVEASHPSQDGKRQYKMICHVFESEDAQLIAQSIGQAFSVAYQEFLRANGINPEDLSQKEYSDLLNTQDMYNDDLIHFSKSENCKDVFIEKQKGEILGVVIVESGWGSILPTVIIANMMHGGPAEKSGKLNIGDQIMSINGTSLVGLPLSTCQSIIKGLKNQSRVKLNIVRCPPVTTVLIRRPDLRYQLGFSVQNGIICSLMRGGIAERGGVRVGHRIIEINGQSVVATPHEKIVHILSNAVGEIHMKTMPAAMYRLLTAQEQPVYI

[9] = target: T3, Small ubiquitin-related modifier 1 (Homo sapiens, UniProt P63165); experiment: SUMO1 protein-protein binding blockers, potency – biochemical, FRET, dose response (AID 624383); assay type: functional; conditions: read-out: IC50_Mean
T3 sequence (P63165 whole entry): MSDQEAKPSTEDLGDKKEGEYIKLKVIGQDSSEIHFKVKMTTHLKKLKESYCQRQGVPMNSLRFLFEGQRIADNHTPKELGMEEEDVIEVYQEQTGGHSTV

[10] = target: T3, Small ubiquitin-related modifier 1; experiment: SUMO1 protein interaction blockers, potency – biochemical, fluorescence polarization, uHTS hits, dose response (AID 624382); assay type: functional; conditions: read-out: IC50_Mean
[11] = target: T2, Voltage-gated N-type calcium channel alpha-1B subunit/Amyloid beta A4 precursor protein-binding family A member 1; assay type: protein assay; remark: listed apart in the source
[12] = target: Induced myeloid leukemia cell differentiation protein Mcl-1 (Homo sapiens, UniProt Q07820); assay type: functional
[13] = target: DNA dC->dU-editing enzyme APOBEC-3G (Homo sapiens, UniProt Q9HC16); experiment: Dose Response confirmation of small molecule APOBEC3G DNA Deaminase Inhibitors via a fluorescence-based single-stranded DNA deaminase assay. [Related pubchem assays (depositor defined):AID493012, AID493028]; assay type: functional
Prothrombin = Prothrombin (Homo sapiens, UniProt P00734); experiment: Thrombin 1536 HTS Dose Response Confirmation. [Related pubchem assays: 1046 (Thrombin 1536 HTS; hits were confirmed in this assay)]; assay type: functional
[14] = target: Intestinal-type alkaline phosphatase (Homo sapiens, UniProt P09923); experiment: inhibition of human intestinal alkaline phosphatase – biochemical, dose response (AID 488876); assay type: functional
[15] = target: T4, Calpain-2 catalytic subunit (Sus scrofa, UniProt P43367); experiment: m-calpain protease blockers, concentration series – biochemical, fluorogenic peptide substrate, dose response (AID 1420); assay type: functional
T4 sequence (P43367 whole entry): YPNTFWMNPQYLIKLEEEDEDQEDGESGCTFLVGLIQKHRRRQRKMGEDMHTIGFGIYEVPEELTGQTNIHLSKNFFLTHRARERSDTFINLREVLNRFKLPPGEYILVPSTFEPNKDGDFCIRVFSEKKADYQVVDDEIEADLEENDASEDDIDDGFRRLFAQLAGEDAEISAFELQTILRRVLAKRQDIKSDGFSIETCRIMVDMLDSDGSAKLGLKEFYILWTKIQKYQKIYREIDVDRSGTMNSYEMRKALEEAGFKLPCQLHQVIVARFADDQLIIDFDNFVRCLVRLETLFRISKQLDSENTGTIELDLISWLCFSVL

[16] = target: T5, Alkaline phosphatase, tissue-nonspecific isozyme (Homo sapiens, UniProt P05186); experiment: TNAP enzyme inhibition by screening hits, dose response, selectivity assay for mouse IAP inhibitor project, biochemical, human TNAP, uHTS hits (AID 488906); assay type: functional
T5 sequence (P05186 whole entry): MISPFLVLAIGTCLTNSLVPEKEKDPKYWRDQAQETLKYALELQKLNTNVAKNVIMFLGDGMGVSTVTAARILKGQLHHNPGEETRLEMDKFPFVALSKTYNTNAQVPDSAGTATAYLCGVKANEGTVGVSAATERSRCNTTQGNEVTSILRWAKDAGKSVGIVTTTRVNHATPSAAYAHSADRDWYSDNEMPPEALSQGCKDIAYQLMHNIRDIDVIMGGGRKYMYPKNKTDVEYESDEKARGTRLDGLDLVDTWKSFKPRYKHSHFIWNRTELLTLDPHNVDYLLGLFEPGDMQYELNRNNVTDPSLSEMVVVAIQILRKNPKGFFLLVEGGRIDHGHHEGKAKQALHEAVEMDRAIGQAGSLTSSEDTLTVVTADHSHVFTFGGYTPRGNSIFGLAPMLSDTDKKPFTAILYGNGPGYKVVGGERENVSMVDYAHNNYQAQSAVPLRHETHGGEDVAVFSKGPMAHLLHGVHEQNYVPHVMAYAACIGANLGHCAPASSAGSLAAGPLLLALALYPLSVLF

[17] = target: Intestinal-type alkaline phosphatase (Mus musculus, UniProt P24822); experiment: PubChem AID 488785; assay type: functional

SMILES: Cc1ccc(C)c(NC(=O)c2ccc(-c3cc(Cl)ccc3Cl)o2)c1
- IC50 [1]: > 25 µM (inactive)
- IC50 [2]: > 25 µM (inactive)
- IC50 [3]: > 25 µM (inactive)
- IC50 [4]: > 25 µM (inactive)

SMILES: C=C(C)C(=O)Nc1cccc(C2=NOC3(C2)C[C@@H](C(N)=O)N(C(=O)/C=C/C=C/C)C3)c1 (stereo partly drawn)
- IC50 [5]: > 100 µM (inactive)
- IC50 [6]: 3.25 µM (active)
- EC50 [7]: 1.17 µM (active)
- IC50 [8]: 34.3 µM (active)
- IC50 [9]: 1.72 µM (active)
- IC50 [10]: > 66.6 µM (inactive)
- IC50 [11]: 10 µM (active)
- IC50 [12]: 2.3 µM (active)
- IC50 [13]: 3.41 µM (active)

SMILES: COc1cccc(NC(S)=NCCC(c2ccccc2)c2ccccc2)c1
- IC50 (Prothrombin): > 50 µM (not active)
- IC50 [14]: > 100 µM (inactive)
- IC50 [15]: 3.72 µM (not active)
- IC50 [16]: 92.7 µM (active)
- IC50 [17]: 5.12 µM (active)
